# Measurements reported in patent publication US12492367B2, “Sensor chip capable of culturing cells and of analyzing cell-derived substance, and cell activity quantitative analysis method using the same” (AJOU UNIVERSITY INDUSTRY-ACADEMIC COOPERATION FOUNDATION, priority 2020, dated 2025).
# Columns and labels:
# [1] = test system: RAW 264.7 cells; assay: Cyclic voltammetry measurement of hydrogen peroxide secreted into the cell culturing liquid after PMA treatment (HRP carbon paste work electrode); assay type: cell-based, murine; settings: 16 μM PMA; CV 0 V to −1 V, reduction current at −400 mV; calibration curve; FIG. 4-6
# Description: (§1) After introducing the sensor chip into an autoclave, the sensor chip was autoclaved at a temperature of 120° C. for […]. Thereafter, RAW 264.7 cells as a murine macrophage cell line were inoculated into a cell culturing compartment containing the culturing liquid of the sterilized sensor chip, and then were cultured for 24 hours to adhere the cells to a surface of the culturing compartment. In this regard, Dulbecco's modified eagle medium (DMEM), 10% fetal bovine serum, and 5% penicillin streptomycin were added to the culturing liquid, and then culturing of the cells was carried out at 37° C., and under a 5% CO2 concentration condition.
# After identifying that the cells were adhered to the surface of the culturing compartment, 16 μM of PMA was added to the culturing liquid to chemically activate the cells, and change in the cell shape was observed (FIGS. 4-1 and 4-2). In this regard, PMA used as the chemical stimulant acts as a strong tumor promoter and is a chemical that induces cell growth, differentiation, and immune response when the PMA is added to the culturing liquid. […]
# For this purpose, a calibration curve (FIG. 4-5) was obtained based on the CV results measured while hydrogen peroxide having varying concentrations was added to the cell culturing liquid. […]
# [2] = test system: RAW 264.7 cells; assay: Observation of cell shape change of RAW 264.7 cells after PMA treatment in the sensor chip; assay type: cell-based, murine; settings: 16 μM PMA added to culturing liquid; RAW 264.7 cells adhered after 24 hours culture; FIGS. 4-1 and 4-2
# Description: as §1
# After identifying that the cells were adhered to the surface of the culturing compartment, 16 μM of PMA was added to the culturing liquid to chemically activate the cells, and change in the cell shape was observed (FIGS. 4-1 and 4-2). In this regard, PMA used as the chemical stimulant acts as a strong tumor promoter and is a chemical that induces cell growth, differentiation, and immune response when the PMA is added to the culturing liquid. When the external stimulating substance such as the PMA is added to the culturing liquid, the immune cells recognize the external stimulating substance as an external stimulus such that the activation of the cells is induced.
structure (smiles),measurement,setting,value
"CCCCCCCCCCCCCC(=O)O[C@@H]1[C@@H](C)[C@@]2(O)[C@@H](C=C(CO)C[C@]3(O)C(=O)C(C)=C[C@@H]23)[C@@H]2C(C)(C)[C@]12OC(C)=O [PMA, phorbol 12-myristate 13-acetate]",concentration of hydrogen peroxide secreted from the cells over time after the PMA treatment,[1],concentration of hydrogen peroxide secreted from the cells also increases
same,change in the cell shape after the PMA treatment,[2],cell shape changed into an atypical shape
